# According to US11485728B2, “Small molecules for the treatment of autoimmune diseases and cancer” (Athos Therapeutics, Inc., priority 2020, dated 2022):
# pIC50: −log10 of the molar value.
# Experiments:
# Format in all cases: in vitro ADME
# [1] = In-vitro half-life in mouse liver microsomes; details: Mouse liver microsomes 0.5 mg/mL; 1 μg/mL drug; NRS; read-out: Metabolic Half-life
# Procedure: (§1) In each of the species (human, rat, mouse) of liver matrix to be tested, a working concentration of 2 μg/mL was prepared of each test article from the 0.5 mg/mL DMSO stock solution by adding 3 μL of 0.5 mg/mL test article stock solution to 747 μL of the 1 mg/mL liver matrix. Incubation was performed at 37±2° C. with gentle, continuous mixing in shaking water bath in 2.0 mL-well capacity 96-Deepwell plates (96-DWP). Samples were retrieved in duplicate at the following time points: 0, 5, 10, 15, 30 and 60 minutes. The final mixture contained 1 μg/mL of drug and 0.5 mg/mL of liver matrix. First, 50 μL of test articles in liver matrix was added to the 96-DWP and pre-warmed the mixture in the 96-DWP for 2 minutes in the 37° C. water bath. The enzymatic reaction was started by the addition of 50 μL of the corresponding 2× NADPH regenerating system (NRS) cofactor solution to all sample wells and stopped by the addition of 300 μL of stop solution (acetonitrile containing 10 ng/mL Tolbutamide as an internal standard (I.Std.). The samples were agitated for 10 minutes and then centrifuged for 20 minutes at 4500 rpm. 25 μL of supernatant was diluted with 475 μL acetonitrile containing I. Std. into a new 96-DWPs for LC-MS/MS analysis.
# (§2) Half-life calculations were generated and calculated by Graphpad Prism® software. The half-life of test compound was calculated based on the first-order reaction kinetics. The data was transformed to linear regression (y=log(y) where “y” axis represents the % compound remaining at any given time with respect to time 0 minutes; “x” axis represents time in minutes) in order to calculate the half-life.
# (§3) A comparison of metabolic stability in time-course incubation experiments in varying species of liver can provide information of pharmacokinetic properties of drugs attributable to species-related differences in hepatic metabolism. The results of these experiments often assist in further applications such as assessing in vitro metabolite profiling and choosing relevant species for toxicology studies based on similarities relative to the metabolic stability to the human profile. For these experiments, the test compound was tested in parallel with a positive control, Dasatinab, in an enzymatic reaction solution of each species (human and rat) of liver microsomes containing a NADPH regenerating system (NRS). The final mixture contained 1 μg/mL of drug and 0.5 mg/mL of liver matrix. Incubations were performed at 37±2° C. with gentle, continuous mixing in shaking water bath in 96-Deep well plates. The stability of the test compound is monitored using fast, specific and sensitive LC/MS/MS analysis.
# [2] = In-vitro half-life in human liver microsomes; details: Human liver microsomes 0.5 mg/mL; 1 μg/mL drug; NRS; read-out: Metabolic Half-life
# Procedure: as §1, §2, §3
# CYP2C19 = molecular target: T1, CYP2C19 (Homo sapiens, UniProt P33261); assay: CYP-direct inhibition, CYP2C19
# T1 construct: from tissue; host or cells: pooled human liver microsomes
# Procedure: Many drugs inhibit cytochrome P450 enzymes to cause clinically significant changes in the pharmacokinetics of other drugs. In vitro cytochrome P450 inhibition, can provide crucial information in evaluating potential clinical drug-drug interactions and is useful for focusing in vivo tests to areas of concern. The cytochrome P450 inhibition assay was developed by preparing a working cocktail solution consisting of six probe substrates 10 μM ethoxy-resorufin (CYP1A2), 100 μM rosiglitazone (CYP2C8), 50 μM diclofenac (CYP2C9), 300 μM S-mephenytoin (CYP2C19), 50 μM dextromethorphan (CYP2D6), and 20 μM midazolam (CYP3A4). A mixture solution consists of 140 uL of 0.286 mg/mL of pooled human liver microsome working solution and 20 uL working solutions of test articles, standard control inhibitors, or positive control placebo and 20 uL of substrate cocktail mixture working solution was prepared. The mixture solution was pre-warm in a gentle shaking bath at 37±2° C. for 5 minutes. The enzymatic reaction started by adding 20 uL of NRS working solution to the mixture solution and incubated for 10 minutes at 37±2° C. To stop the reaction, an addition of 400 μL cold stop solution (acetonitrile containing 50 ng/mL Tolbutamide as an internal standard (I.Std.) was added to the mixture solution. The final concentration of test article, inhibitors, substrates, and cofactors are noted in Table 0.1 below. Two individual samples were prepared for each test compound. The extracted samples were vortexed and then centrifuged at 4500 rpm for 7 minutes using Eppendorf Centrifuge 5910R. 200 uL of supernatant was diluting with 200 uL of 50% Methanol into 96-DW plate for LC/MS/MS analysis
# Concentration-response plots are used to determine the effects of an inhibitor on an enzymatic reaction. A typical concentration-response plot provides fractional activity (Y axis) is plotted as a function of log inhibitor concentration (X axis). The data are fitted using a standard Sigmoidal dose-response equation which is also called a […] logistic equation. The concentration of compound that results in 50% inhibition of maximal activity is termed as the IC50 (inhibitor concentration yielding 50% inhibition). IC50 value is calculated using Prism GraphPad software, version 9. […].
# Cytochrome P450 inhibition of a drug is a key factor in determining pharmacokinetic drug-drug interactions. The objective of this study was to evaluate the inhibition potential of G9a inhibitors on six (6) major human cytochrome P450 enzymes, including CYP1A2, CYP2C8, CYP2C9, CYP2C19, CYP2D6, and CYP3A4. Inhibition was determined by using a substrate cocktail and analyzing the rate of specific metabolites formation. The cytochrome P450 inhibition assay was developed using a cocktail consisting of six (6) probe substrates ethoxy-resorufin (CYP1A2), rosiglitazone (CYP2C8), diclofenac (CYP2C9), S-mephenytoin (CYP2C19), dextromethorphan (CYP2D6), and midazolam (CYP3A4). The cocktail was incubated in human liver microsome with NADPH regenerating system (NRS) in a shaking bath at 37±2° C. The formation of specific metabolites was monitored by LC/MS/MS. Test compound was added to the cocktail-liver microsome mixture at varying concentrations and its effect on cytochrome P450 activity was determined by analyzing the rate of specific metabolite formation. The percent inhibition was calculated and plotted with reference to the concentration, and the IC50 value for inhibition was derived by fitting the data with a using log(inhibitor) vs. normalized response with variable slope least squares fit by Graphpad Prism® software. […].
# T1 sequence (P33261 whole entry): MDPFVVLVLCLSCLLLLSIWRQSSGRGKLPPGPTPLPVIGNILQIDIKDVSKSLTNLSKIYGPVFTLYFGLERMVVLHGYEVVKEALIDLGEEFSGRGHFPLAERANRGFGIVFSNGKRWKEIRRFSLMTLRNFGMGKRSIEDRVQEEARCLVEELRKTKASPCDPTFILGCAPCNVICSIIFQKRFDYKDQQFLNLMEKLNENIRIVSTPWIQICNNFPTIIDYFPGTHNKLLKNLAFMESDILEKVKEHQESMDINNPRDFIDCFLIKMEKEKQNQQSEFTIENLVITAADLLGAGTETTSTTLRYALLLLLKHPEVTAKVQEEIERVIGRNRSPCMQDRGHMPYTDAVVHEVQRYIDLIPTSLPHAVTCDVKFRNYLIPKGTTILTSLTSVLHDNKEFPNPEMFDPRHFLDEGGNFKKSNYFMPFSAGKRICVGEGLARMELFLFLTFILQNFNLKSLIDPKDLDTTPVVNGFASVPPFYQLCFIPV
half-life at 1 μg/mL [1] [h],half-life at 1 μg/mL [2] [h],pIC50 (CYP2C19),Compound
> 1,> 1,< 4.00,"COc1cc2c(NC3CCS(=O)(=O)CC3)nc(N3CCCN(C)CC3)nc2cc1OCCCN1CCCC1 [Compound 110, 4-((6-methoxy-2-(4-methyl-1,4-diazepan-1-yl)-7-(3-(pyrrolidin-1-yl)propoxy)quinazolin-4-yl)amino)tetrahydro-2H-thiopyran 1,1-dioxide]"
> 1,> 1,< 4.00,"COc1cc2c(NCC(N)=O)nc(N3CCC(F)(F)CC3)nc2cc1OCCCN1CCCC1 [Compound 9, 2-((2-(4,4-difluoropiperidin-1-yl)-6-methoxy-7-(3-(pyrrolidin-1-yl)propoxy)quinazolin-4-yl)amino)acetamide]"
> 1,> 1,< 4.00,"COc1cc2c(NC3CCOCC3)nc(N3CCC(F)(F)CC3)nc2cc1OCCCN1CCCC1 [Compound 2, 2-(4,4-difluoropiperidin-1-yl)-6-methoxy-7-(3-(pyrrolidin-1-yl)propoxy)-N-(tetrahydro-2H-pyran-4-yl)quinazolin-4-amine]"
> 1,> 1,< 4.00,"COc1cc2c(NC3CCN(C(C)C)CC3)nc(-n3cccn3)nc2cc1OCCCN1CCCC1 [Compound 157, N-(1-isopropylpiperidin-4-yl)-6-methoxy-2-(1H-pyrazol-1-yl)-7-(3-(pyrrolidin-1-yl)propoxy)quinazolin-4-amine]"
> 1,> 1,4.22,"COCCNc1nc(N2CCC(F)(F)CC2)nc2cc(OCCCN3CCCC3)c(OC)cc12 [Compound 4, 2-(4,4-difluoropiperidin-1-yl)-6-methoxy-N-(2-methoxyethyl)-7-(3-(pyrrolidin-1-yl)propoxy)quinazolin-4-amine]"
0.535,> 1,4.12,"COc1cc2c(Nc3ccncc3)nc(-n3ccnc3)nc2cc1OCCCN1CCCC1 [Compound 130, 2-(1H-imidazol-1-yl)-6-methoxy-N-(pyridin-4-yl)-7-(3-(pyrrolidin-1-yl)propoxy)quinazolin-4-amine]"
> 1,> 1,< 4.00,"COc1cc2c(NC3COC3)nc(N3CCC(F)(F)CC3)nc2cc1OCCCN1CCCC1 [Compound 11, 2-(4,4-difluoropiperidin-1-yl)-6-methoxy-N-(oxetan-3-yl)-7-(3-(pyrrolidin-1-yl)propoxy)quinazolin-4-amine]"
> 1,> 1,< 4.00,"COc1cc2c(NC3CCOCC3)nc(N3CCOCC3)nc2cc1OCCCN1CCCC1 [Compound 195, 6-methoxy-2-morpholino-7-(3-(pyrrolidin-1-yl)propoxy)-N-(tetrahydro-2H-pyran-4-yl)quinazolin-4-amine]"
> 1,> 1,< 4.00,"COc1cc2c(NC3CCS(=O)(=O)CC3)nc(N3CCOCC3)nc2cc1OCCCN1CCCC1 [Compound 102, 4-((6-methoxy-2-morpholino-7-(3-(pyrrolidin-1-yl)propoxy)quinazolin-4-yl)amino)tetrahydro-2H-thiopyran 1,1-dioxide]"
> 1,> 1,< 4.00,"COc1cc2c(NC3CCS(=O)(=O)CC3)nc(N3CCS(=O)(=O)CC3)nc2cc1OCCCN1CCCC1 [Compound 103, 4-(4-((1,1-dioxidotetrahydro-2H-thiopyran-4-yl)amino)-6-methoxy-7-(3-(pyrrolidin-1-yl)propoxy)quinazolin-2-yl)thiomorpholine 1,1-dioxide]"
> 1,> 1,< 4.00,"COc1cc2c(NC3CCNCC3)nc(N3CCC(F)(F)CC3)nc2cc1OCCCN1CCCC1 [Compound 8, 2-(4,4-difluoropiperidin-1-yl)-6-methoxy-N-(piperidin-4-yl)-7-(3-(pyrrolidin-1-yl)propoxy)quinazolin-4-amine]"
0.988,> 1,< 4.00,"COc1cc2c(NC3CCN(C(C)C)CC3)nc(-n3ccnc3)nc2cc1OCCCN1CCCC1 [Compound 156, 2-(1H-imidazol-1-yl)-N-(1-isopropylpiperidin-4-yl)-6-methoxy-7-(3-(pyrrolidin-1-yl)propoxy)quinazolin-4-amine]"
> 1,> 1,< 4.00,"COc1cc2c(NC3CCOCC3)nc(N3CCS(=O)(=O)CC3)nc2cc1OCCCN1CCCC1 [Compound 196, 4-(6-methoxy-7-(3-(pyrrolidin-1-yl)propoxy)-4-((tetrahydro-2H-pyran-4-yl)amino)quinazolin-2-yl)thiomorpholine 1,1-dioxide]"
0.637,> 1,< 4.00,"COc1cc2c(N[C@H]3CCCNC3)nc(N3CCCC3)nc2cc1OCCCN1CCCC1 [Compound 158, (S)-6-methoxy-N-(piperidin-3-yl)-2-(pyrrolidin-1-yl)-7-(3-(pyrrolidin-1-yl)propoxy)quinazolin-4-amine]"
> 1,0.63,< 4.00,"COc1cc2c(NC3CCS(=O)(=O)CC3)nc(N3CCC(F)(F)CC3)nc2cc1C#CCN1CCCC1 [Compound 248, 4-((2-(4,4-difluoropiperidin-1-yl)-6-methoxy-7-(3-(pyrrolidin-1-yl)prop-1-yn-1-yl)quinazolin-4-yl)amino)tetrahydro-2H-thiopyran 1,1-dioxide]"

Compound,half-life at 1 μg/mL [1] [h],half-life at 1 μg/mL [2] [h],pIC50 (CYP2C19)
"COc1cc2c(NC3CCN(C(C)C)CC3)nc(N3CCC(F)(F)CC3)nc2cc1OCCCN1CCCC1 [Compound 400, 2-(4,4-difluoropiperidin-1-yl)-N-(1-isopropylpiperidin-4-yl)-6-methoxy-7-(3-(pyrrolidin-1-yl)propoxy)quinazolin-4-amine, reference compound]",> 1,> 1,< 4.00
